In patent US20250325517A1, “ORAL DOSAGE FORMS OF ELRAGLUSIB” (Actuate Therapeutics, Inc., priority 2022, published 2025):
“And” between values parts separate entries of the source, which are not always exact repeats. Identical values can stand only once. Like-named read-outs stand apart in the source and are kept apart here. Marks after values point to notes of the source that are not given here.

Experiment: Phase 1 crossover PK study: oral solution fed/fasted vs IV infusion in healthy subjects
Assay type: in vivo, human
Protocol: This pharmacokinetic (PK) study in healthy subjects was conducted to characterize and compare the PK parameters in plasma following a single intravenous (IV) dose of Elraglusib Injection, Elraglusib Oral Solution after fasting, and Elraglusib Oral Solution after a high-fat meal (fed). The study was intended to assess the potential feasibility of an oral formulation of elraglusib based on systemic exposure being within the biologically active range. In clinical studies conducted to date, elraglusib Injection (10 mg/mL) is administered IV once or twice per week over multiple hours, which requires a significant amount of time and resources by both patients and site personnel. […] See Example 3 above.
The route of administration is by IV infusion after diluting elraglusib for injection with 0.9% Sodium Chloride Injection.
It is a clear, red solution, free of visible particulate matter and a low bioburden liquid dosage form that is self-preserving against microbial growth.
Subjects received a single 3.3 mg/kg dose of each of the following in a randomly assigned order separated by a 2-week period.
During the study, the high fat meal was administered over a period of under 30 minutes (in almost all cases, 28 minutes).
Elraglusib Injection (10 mg/mL) administered as an IV infusion over 60 minutes (concentration in mg/mL and infusion rate in mL/kg/hour could vary depending on the subject's body weight).
PK parameters including AUC, Cmax, Tmax, and t1/2 were analyzed by standard non-compartmental analysis (NCA) methods following each of the elraglusib doses. Log transformed Cmax and AUC parameters in subjects having adequate PK data following at least 1 of the oral and IV doses were used to assess the relative bioavailability of the oral dose (fed and/or fasted) compared to the IV dose.
All efforts were made to obtain the PK samples at the scheduled nominal times relative to dosing. PK samples were assayed using validated analytical methods.

[1] = IV infusion 3.3 mg/kg, human plasma

Cn1cc(C2=C(c3coc4ccc(F)cc34)C(=O)NC2=O)c2cc3c(cc21)OCO3 [elraglusib, 3-(5-fluorobenzofuran-3-yl)-4-(5-methyl-5H-[1,3]dioxolo[4,5-f]indol-7-yl)-1H-pyrrole-2,5-dione]
% extrap Arithmetic Mean [1]: 1.146%
% extrap GMean [1]: 0.7979%
% extrap Median [1]: 1.04%
AUC∞/Dose Arithmetic Mean [1]: 33.79 ng·h/mL/mg
AUC∞/Dose GMean [1]: 32.93 ng·h/mL/mg
AUC∞/Dose Median [1]: 32.7 ng·h/mL/mg
Clast Arithmetic Mean [1]: 3.045 ng/mL
Clast GMean [1]: 2.142 ng/mL
Clast Median [1]: 2.64 ng/mL
Cmax/Dose Arithmetic Mean [1]: 6.756 ng/mL/mg
Cmax/Dose GMean [1]: 6.615 ng/mL/mg
Cmax/Dose Median [1]: 7.02 ng/mL/mg
R^2 Arithmetic Mean [1]: 0.9904 #
R^2 GMean [1]: 0.9903 #
R^2 Median [1]: 0.9964 #
λZ Arithmetic Mean [1]: 0.0397 h⁻¹
λZ GMean [1]: 0.0372 h⁻¹
λZ Median [1]: 0.0346 h⁻¹
oral bioavailability vs IV, geometric means of AUClast or AUC∞ (human, fasted state): 14-21%
oral bioavailability vs IV, geometric means of Cmax (human, fasted state): 5-11%
half-life (human, plasma, 3.3 mg/kg, human, read-out: terminal elimination half-life, rapid clearance subset of subjects): 7 to 11 h
clearance (human, plasma, iv, 3.3 mg/kg, IV infusion): 7.11 mL/min/kg and 519 mL/min
AUC (human, plasma, iv, 3.3 mg/kg, IV infusion 3.3 mg/kg, human plasma, read-out: AUC24 Arithmetic Mean): 6850 ng·h/mL
AUC (human, plasma, iv, 3.3 mg/kg, IV infusion 3.3 mg/kg, human plasma, read-out: AUC24 GMean): 6730 ng·h/mL
AUC (human, plasma, iv, 3.3 mg/kg, IV infusion 3.3 mg/kg, human plasma, read-out: AUC24 Median): 7200 ng·h/mL
AUC (human, plasma, iv, 3.3 mg/kg, IV infusion 3.3 mg/kg, human plasma, read-out: AUC48 Arithmetic Mean): 7590 ng·h/mL
AUC (human, plasma, iv, 3.3 mg/kg, IV infusion 3.3 mg/kg, human plasma, read-out: AUC48 GMean): 7450 ng·h/mL
AUC (human, plasma, iv, 3.3 mg/kg, IV infusion 3.3 mg/kg, human plasma, read-out: AUC48 Median): 7980 ng·h/mL
AUC (human, plasma, iv, 3.3 mg/kg, IV infusion 3.3 mg/kg, human plasma, read-out: AUC72 Arithmetic Mean): 7840 ng·h/mL
AUC (human, plasma, iv, 3.3 mg/kg, IV infusion 3.3 mg/kg, human plasma, read-out: AUC72 GMean): 7690 ng·h/mL
AUC (human, plasma, iv, 3.3 mg/kg, IV infusion 3.3 mg/kg, human plasma, read-out: AUC72 Median): 8190 ng·h/mL
AUC (human, plasma, iv, 3.3 mg/kg, IV infusion 3.3 mg/kg, human plasma, read-out: AUC96 Arithmetic Mean): 7980 ng·h/mL
AUC (human, plasma, iv, 3.3 mg/kg, IV infusion 3.3 mg/kg, human plasma, read-out: AUC96 GMean): 7810 ng·h/mL
AUC (human, plasma, iv, 3.3 mg/kg, IV infusion 3.3 mg/kg, human plasma, read-out: AUC96 Median): 8250 ng·h/mL
AUC(0-t) (human, plasma, iv, 3.3 mg/kg, IV infusion 3.3 mg/kg, human plasma, read-out: AUClast Arithmetic Mean): 7970 ng·h/mL
AUC(0-t) (human, plasma, iv, 3.3 mg/kg, IV infusion 3.3 mg/kg, human plasma, read-out: AUClast GMean): 7810 ng·h/mL
AUC(0-t) (human, plasma, iv, 3.3 mg/kg, IV infusion 3.3 mg/kg, human plasma, read-out: AUClast Median): 8250 ng·h/mL
AUC(0-inf) (human, plasma, iv, 3.3 mg/kg, IV infusion 3.3 mg/kg, human plasma, read-out: AUC∞ Arithmetic Mean): 8070 ng·h/mL
AUC(0-inf) (human, plasma, iv, 3.3 mg/kg, IV infusion 3.3 mg/kg, human plasma, read-out: AUC∞ GMean): 7900 ng·h/mL
AUC(0-inf) (human, plasma, iv, 3.3 mg/kg, IV infusion 3.3 mg/kg, human plasma, read-out: AUC∞ Median): 8260 ng·h/mL
Cmax (human, plasma, iv, 3.3 mg/kg, IV infusion 3.3 mg/kg, human plasma, read-out: Cmax Arithmetic Mean): 1600 ng/mL
Cmax (human, plasma, iv, 3.3 mg/kg, IV infusion 3.3 mg/kg, human plasma, read-out: Cmax GMean): 1590 ng/mL
Cmax (human, plasma, iv, 3.3 mg/kg, IV infusion 3.3 mg/kg, human plasma, read-out: Cmax Median): 1570 ng/mL
Tmax (human, plasma, iv, 3.3 mg/kg, IV infusion 3.3 mg/kg, human plasma, read-out: Tmax Arithmetic Mean): 1.22 h
Tmax (human, plasma, iv, 3.3 mg/kg, IV infusion 3.3 mg/kg, human plasma, read-out: Tmax GMean): 1.13 h
Tmax (human, plasma, iv, 3.3 mg/kg, IV infusion 3.3 mg/kg, human plasma, read-out: Tmax Median): 1.32 h
half-life (human, plasma, iv, 3.3 mg/kg, IV infusion 3.3 mg/kg, human plasma, read-out: t1/2 Arithmetic Mean (converted)): 19.6 h
half-life (human, plasma, iv, 3.3 mg/kg, IV infusion 3.3 mg/kg, human plasma, read-out: t1/2 GMean (converted)): 18.6 h
half-life (human, plasma, iv, 3.3 mg/kg, IV infusion 3.3 mg/kg, human plasma, read-out: t1/2 Median (converted)): 20.1 h
AUC(0-t) (human, plasma, iv, 3.3 mg/kg, IV infusion 3.3 mg/kg, read-out: AUClast LS Means): 7810 ng·h/mL
AUC(0-inf) (human, plasma, iv, 3.3 mg/kg, IV infusion 3.3 mg/kg, read-out: AUC∞ LS Means): 7900 ng·h/mL
Cmax (human, plasma, iv, 3.3 mg/kg, IV infusion 3.3 mg/kg, read-out: Cmax LS Means): 1590 ng/mL
Cmax (human, plasma, iv, 3.3 mg/kg, human, 3.3 mg/kg IV infusion, read-out: mean Cmax (arithmetic mean)): 1600 ng/mL
AUC(0-inf) (human, plasma, iv, 3.3 mg/kg, human, 3.3 mg/kg IV, read-out: mean AUC∞): 8070 ng·h/mL
Vd (human, plasma, iv, 3.3 mg/kg, human, IV infusion, read-out: volume of distribution): 11.2 L/kg and 822 L
half-life (human, plasma, other: IV or oral, 3.3 mg/kg, human, read-out: terminal elimination half-life, rapid clearance subset of subjects): 6 to 11 h
half-life (human, plasma, other: oral solution (fed and fasted) and IV infusion, 3.3 mg/kg, human, all 3 treatments, read-out: terminal elimination half-life, majority of subjects): 15 to 25 h
half-life (human, plasma, other: oral solution (fed and fasted) and IV infusion, 3.3 mg/kg, human, all three treatments, read-out: mean terminal elimination half-life): 16 to 21 h
Cmax (human, plasma, po, 3.3 mg/kg, human, 3.3 mg/kg oral solution, fasted state, read-out: mean Cmax (arithmetic mean)): 172 ng/mL
Cmax (human, plasma, po, 3.3 mg/kg, human, 3.3 mg/kg oral solution, fed state, read-out: mean Cmax (arithmetic mean)): 592 ng/mL
AUC(0-inf) (human, plasma, po, 3.3 mg/kg, human, 3.3 mg/kg oral, fasted state, read-out: mean AUC∞): 1810 ng·h/mL
AUC(0-inf) (human, plasma, po, 3.3 mg/kg, human, 3.3 mg/kg oral, fed state, read-out: mean AUC∞): 5000 ng·h/mL
bioavailability (human, plasma, po, 3.3 mg/kg, human, 3.3 mg/kg, fasted state (Cmax and AUC based), read-out: oral bioavailability): 5 to 21%
bioavailability (human, plasma, po, 3.3 mg/kg, human, 3.3 mg/kg, fed state (Cmax and AUC based), read-out: oral bioavailability): 19 to 63%
half-life (human, plasma, po, 3.3 mg/kg, human, subject 113, oral fed state, read-out: longest terminal half-life (converted)): 50.5 h
half-life (human, plasma, po, 3.3 mg/kg, human, subject 118, oral fasted state, read-out: shortest half-life (converted)): 6.92 h
bioavailability (human, plasma, po, 3.3 mg/kg, human, read-out: relative bioavailability following oral dosing in the fed state, one subject (105)): 91%
AUC (human, plasma, po, 3.3 mg/kg, oral 3.3 mg/kg fasted state, human plasma, read-out: AUC24 Arithmetic Mean): 1230 ng·h/mL
AUC (human, plasma, po, 3.3 mg/kg, oral 3.3 mg/kg fasted state, human plasma, read-out: AUC24 GMean): 1010 ng·h/mL
AUC (human, plasma, po, 3.3 mg/kg, oral 3.3 mg/kg fasted state, human plasma, read-out: AUC24 Median): 1070 ng·h/mL
AUC (human, plasma, po, 3.3 mg/kg, oral 3.3 mg/kg fasted state, human plasma, read-out: AUC48 Arithmetic Mean): 1620 ng·h/mL
AUC (human, plasma, po, 3.3 mg/kg, oral 3.3 mg/kg fasted state, human plasma, read-out: AUC48 GMean): 1340 ng·h/mL
AUC (human, plasma, po, 3.3 mg/kg, oral 3.3 mg/kg fasted state, human plasma, read-out: AUC48 Median): 1420 ng·h/mL
AUC (human, plasma, po, 3.3 mg/kg, oral 3.3 mg/kg fasted state, human plasma, read-out: AUC72 Arithmetic Mean): 1740 ng·h/mL
AUC (human, plasma, po, 3.3 mg/kg, oral 3.3 mg/kg fasted state, human plasma, read-out: AUC72 GMean): 1430 ng·h/mL
AUC (human, plasma, po, 3.3 mg/kg, oral 3.3 mg/kg fasted state, human plasma, read-out: AUC72 Median): 1530 ng·h/mL
AUC (human, plasma, po, 3.3 mg/kg, oral 3.3 mg/kg fasted state, human plasma, read-out: AUC96 Arithmetic Mean): 1780 ng·h/mL
AUC (human, plasma, po, 3.3 mg/kg, oral 3.3 mg/kg fasted state, human plasma, read-out: AUC96 GMean): 1460 ng·h/mL
AUC (human, plasma, po, 3.3 mg/kg, oral 3.3 mg/kg fasted state, human plasma, read-out: AUC96 Median): 1560 ng·h/mL
AUC(0-t) (human, plasma, po, 3.3 mg/kg, oral 3.3 mg/kg fasted state, human plasma, read-out: AUClast Arithmetic Mean): 1780 ng·h/mL
AUC(0-t) (human, plasma, po, 3.3 mg/kg, oral 3.3 mg/kg fasted state, human plasma, read-out: AUClast GMean): 1460 ng·h/mL
AUC(0-t) (human, plasma, po, 3.3 mg/kg, oral 3.3 mg/kg fasted state, human plasma, read-out: AUClast Median): 1560 ng·h/mL
AUC(0-inf) (human, plasma, po, 3.3 mg/kg, oral 3.3 mg/kg fasted state, human plasma, read-out: AUC∞ Arithmetic Mean): 1810 ng·h/mL
AUC(0-inf) (human, plasma, po, 3.3 mg/kg, oral 3.3 mg/kg fasted state, human plasma, read-out: AUC∞ GMean): 1480 ng·h/mL
AUC(0-inf) (human, plasma, po, 3.3 mg/kg, oral 3.3 mg/kg fasted state, human plasma, read-out: AUC∞ Median): 1590 ng·h/mL
CL/F (human, plasma, po, 3.3 mg/kg, oral 3.3 mg/kg fasted state, human plasma, read-out: CL Median (converted)): 34.5 mL/min/kg
Cmax (human, plasma, po, 3.3 mg/kg, oral 3.3 mg/kg fasted state, human plasma, read-out: Cmax Arithmetic Mean): 172 ng/mL
Cmax (human, plasma, po, 3.3 mg/kg, oral 3.3 mg/kg fasted state, human plasma, read-out: Cmax GMean): 133 ng/mL
Cmax (human, plasma, po, 3.3 mg/kg, oral 3.3 mg/kg fasted state, human plasma, read-out: Cmax Median): 169 ng/mL
Tmax (human, plasma, po, 3.3 mg/kg, oral 3.3 mg/kg fasted state, human plasma, read-out: Tmax Arithmetic Mean): 2.7 h
Tmax (human, plasma, po, 3.3 mg/kg, oral 3.3 mg/kg fasted state, human plasma, read-out: Tmax GMean): 2.42 h
